In PubChem BioAssay (NCI):
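These data come from cells grown in 96-well plates and exposed to compound for 48 hours at five concentrations. Here, GI50 denotes the concentration required for 50% inhibition of growth. TGI is the concentration that stops growth completely.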

Legend:
Experiment in all cases: NCI anticancer screen, dose series, 48 h
[1] = test system: CAKI-1 renal
[2] = test system: COLO 205 colon
[3] = test system: DMS 273 small cell lung
[4] = test system: IGROV1 ovarian
[5] = test system: K-562 leukemia
[6] = test system: M14 melanoma
[7] = test system: RPMI-8226 leukemia
[8] = test system: SN12C renal
[9] = test system: U251 CNS

Structure (SMILES) | GI50 [1] [µM] | TGI [1] [µM] | GI50 [2] [µM] | GI50 [3] [µM] | GI50 [4] [µM] | TGI [4] [µM] | GI50 [5] [µM] | TGI [5] [µM] | GI50 [6] [µM] | TGI [6] [µM] | GI50 [7] [µM] | TGI [7] [µM] | GI50 [8] [µM] | TGI [8] [µM] | GI50 [9] [µM] | TGI [9] [µM] | TGI [2] [µM] | TGI [3] [µM]
CCOC(=O)CNC(=O)C(CSC(=O)N(C)O)NC(=O)CCC(N)C(=O)O (stereo not drawn) | > 2000 | > 2000 | > 2000 | > 2000 | > 2000 | > 2000 | > 2000 | > 2000 | > 2000 | > 2000 | > 2000 | > 2000 | > 2000 | > 2000 | > 2000 | > 2000 | – | –
COc1ccc(NC(=O)O[C@H]2[C@H](O[C@H]3[C@@H](O)COC(O[C@H]4C[C@H]5[C@@H]6CC=C7C[C@@H](O)CC[C@]7(C)[C@H]6CC[C@]5(C)[C@H]4[C@H](C)C(=O)CCC(C)C)[C@@H]3OC(C)=O)OC[C@@H](O)[C@@H]2O)cc1 (stereo partly drawn) | < 0.01 | 1.01 | 0.0105 | – | 0.0331 | > 100 | < 0.01 | 19.6 | < 0.01 | 0.0203 | < 0.01 | 0.879 | 11.4 | > 100 | < 0.01 | 12.2 | 0.0363 | –
Cc1c(N2C(=O)/C(=C\c3ccc(N(C)C)cc3)N=C2c2ccccc2)c(=O)n(-c2ccccc2)n1C | > 100 | > 100 | 43.7 | – | 24.1 | > 100 | 40.9 | > 100 | > 100 | > 100 | 25.6 | > 92 | > 100 | > 100 | > 92.4 | > 100 | > 100 | –
COc1cc(C2C(C#N)=C(N)Oc3cc4c(cc32)OCO4)cc2c1OCO2 (stereo not drawn) | 0.382 | > 100 | 0.308 | – | 0.724 | > 100 | 0.068 | > 100 | 0.418 | > 100 | 0.406 | > 71 | 0.599 | > 100 | 0.314 | > 38 | 1.02 | –
COc1ccc(-n2sc(=O)n(Cc3ccc(COC(=O)C(C)c4ccc(CC(C)C)cc4)cc3)c2=O)cc1 (stereo not drawn) | 1.36 | 5.37 | 1.1 | – | 1.4 | 4.74 | 1.43 | 10.4 | 2.6 | 9.45 | 1.51 | 4.11 | 2.83 | 9.49 | 6.83 | 14.5 | 2.6 | –
COc1ccc(-c2cncn2-c2cc(OC)c(OC)c(OC)c2)cc1F | < 0.0197 | > 24.4 | < 0.0122 | – | < 0.0212 | 19 | < 0.01 | > 100 | < 0.01 | 0.141 | < 0.01 | 12.2 | 0.789 | > 100 | < 0.0266 | > 100 | – | –
CN(NC(=O)CC(=O)NN(C)C(=S)c1ccc(Cl)cc1)C(=S)c1ccc(Cl)cc1 | 13.6 | > 100 | 23 | – | 19.8 | > 100 | 16.4 | > 100 | 14.1 | 59.3 | 12.6 | > 100 | 18.6 | > 100 | 21.3 | > 100 | 48.5 | –
O=C1CCC(=O)C(C(=O)CCC(=O)Nc2cccc(Cl)c2)C1 (stereo not drawn) | – | > 100 | – | – | – | > 100 | – | > 100 | – | > 100 | – | > 100 | – | > 100 | – | > 100 | > 100 | –
N#CSCC(=O)c1ccc(Cl)cc1 | 0.0182 | 1.16 | 2.65 | – | 1.33 | 6.6 | 0.974 | > 40.3 | 3.4 | 15.1 | 1.44 | 4.65 | 3.69 | 19 | 3.23 | 16.6 | 7.94 | –
C/C(=N\Nc1cccc(Cl)n1)c1ccccn1 | 0.437 | 7.31 | 0.38 | – | 0.533 | > 59.1 | 0.574 | > 100 | 0.737 | 14.3 | 0.615 | 8.28 | 0.598 | > 100 | 0.582 | > 100 | > 21.5 | –
Cc1cc2c(C(C)C)c(O)c(O)c(C=O)c2c(O)c1-c1c(C)cc2c(C(C)C)c(O)c(O)c(C=O)c2c1O (tested in a mixture with another compound) | 0.966 | 4.81 | 1.36 | – | 0.979 | 12.7 | 0.425 | 20.7 | 1.5 | 3.61 | 0.529 | 4.74 | 1.66 | 5.95 | 0.502 | 1.93 | 2.87 | –
C[C@@H]1CN2[C@H]3[C@@H]1CC[C@]31CCC(=O)O[C@]1(C)[C@@H]1CC[C@H]3CCC=C3[C@@H]12 | > 70 | > 70 | > 70 | – | > 70 | > 70 | > 70 | > 70 | > 70 | > 70 | > 70 | > 70 | > 70 | > 70 | > 70 | > 70 | > 70 | –
CC(=O)OCC(=O)C1(O)C(C)CC2C3C=C(C)C4=Cc5c(cnn5-c5ccccc5)CC4(C)C3C(O)CC21C (stereo not drawn) | 2.35 | 10.1 | 1.72 | – | 1.99 | 6.48 | 0.5 | > 100 | 1.76 | 3.69 | < 0.0345 | – | – | 9.86 | 1 | 3.77 | 3.26 | –
CCN1C(=O)N(CC)C2C1NN=c1s/c(=C\c3ccccc3)c(=O)n12 (stereo not drawn) | 0.0717 | > 100 | 0.193 | – | 0.298 | > 100 | 0.0505 | > 100 | 0.104 | > 100 | 0.389 | > 72.4 | 0.511 | > 100 | 0.316 | > 100 | 0.657 | –
COc1cc(/C=C/C(=O)c2ccc(Nc3nc(Nc4ccccc4)nc(Nc4ccc(Cl)cc4)n3)cc2)cc(OC)c1OC | 11 | > 32.5 | 8.55 | – | 8.17 | > 32.5 | 4.18 | > 32.5 | 15.1 | > 32.5 | 2.21 | 20.9 | 20.9 | > 32.5 | 4.62 | > 32.5 | > 32.5 | –
CS[C@@]1(C(=O)Nc2ccc3[nH]nc(-c4ccc(OC(C)C)nc4)c3c2)CCN(CC(=O)N2CC=C(c3ccc(-c4ncn(C)n4)cc3)CC2)C1 | > 100 | > 100 | 0.0178 | – | 0.271 | > 100 | 2.24 | > 100 | 0.032 | – | 2.21 | > 100 | > 100 | > 100 | 1.65 | > 100 | > 100 | –
CC(=O)N[C@@H](Cc1ccc(OP(=O)(O)O)cc1)C(=O)N[C@H]1CCC(=O)N2CCC[C@@H](C(=O)NCc3ccc(O)cc3)N2C1=O | > 25 | > 25 | > 25 | – | > 25 | > 25 | > 25 | > 25 | > 25 | > 25 | > 25 | > 25 | > 25 | > 25 | > 25 | > 25 | > 25 | –
CCOc1cc(/C=N\NC(=O)N/N=C/c2ccc(O)c(OCC)c2)ccc1O | 3.06 | > 100 | 3.85 | – | 4.71 | > 100 | 0.441 | > 100 | 1.63 | > 100 | 4.79 | > 53 | 7 | > 100 | 1.75 | > 100 | 26.6 | –
CCc1ccccc1-n1c(N)c(C#N)c(-c2ccc(OC)c(OC)c2)c(C#N)c1=O | > 100 | > 100 | > 100 | – | 19.5 | 60 | > 100 | > 100 | 19.7 | 56 | 43.1 | > 100 | 19 | 45.1 | 16.1 | 29.8 | > 100 | –
C[C@@H](Oc1cc(-c2cnn(C3CC4(CCCNC4)C3)c2)cnc1N)c1c(Cl)ccc(F)c1Cl (stereo partly drawn) | 2.08 | 6.62 | 0.384 | – | 2.99 | 13.6 | 0.265 | 1.41 | 1.25 | 2.66 | 1.9 | 5.05 | 1.5 | 8.97 | 1.41 | 3.43 | 1.5 | –
CC[C@H](C)[C@H](NC(=O)C12CC(NC(C)=O)(C1)C2)C(=O)N(C)[C@H](C[C@@H](OC(C)=O)c1nc(C(=O)N[C@@H](Cc2ccccc2)C[C@H](C)C(=O)OC)cs1)C(C)C | 11.2 | > 16.7 | 0.0991 | – | 0.502 | > 16.7 | 0.101 | > 16.7 | 0.13 | 1.88 | 0.0585 | > 3.64 | 0.937 | > 16.7 | 0.433 | > 16.7 | 1.06 | –
ClC1=C(Cl)C(Cl)=C(Cl)C1=Cc1ccc(Cl)cc1 | 0.429 | – | 0.406 | – | 0.396 | 2.11 | 0.388 | 4.1 | 0.287 | 0.904 | 0.422 | 5.32 | 0.375 | 1.82 | 0.344 | 1.23 | 1.52 | –
C=C1C(=O)OC2CC3(C)OC3C3OC3C3=CC(OC3=O)C12 (stereo not drawn) | 1.48 | 3 | 0.539 | – | 21.2 | 40.7 | 2.54 | 6.85 | 8.75 | 24.2 | 7.34 | 33.2 | 11.3 | 25.2 | 17.7 | 35 | 1.25 | –
CCOC(=O)C(Cc1ccc(OC)cc1)C(=O)OCC | 4.67 | 16.6 | 7.23 | – | 3.46 | 14.3 | 1.83 | 11.8 | 8.17 | 20.7 | 3.05 | 14.3 | 5.77 | 21.7 | 4.79 | 17.9 | 19.7 | –
N#Cc1c(Oc2ccc(F)c(NC(=O)Cc3cccc(C(F)(F)F)c3)c2)ccc2nc(NC(=O)C3CC3)sc12 | 0.744 | > 100 | 0.0299 | – | 0.94 | > 44.7 | 0.385 | > 100 | 0.0275 | 2.95 | 0.72 | > 100 | 1.26 | > 100 | 0.491 | > 100 | 2.63 | –
Cc1cccnc1CNC1CC(NCc2ncccc2C)CC(NCc2ncccc2C)C1 (stereo not drawn) | 4.84 | 21.8 | 2.03 | – | 3.89 | 40.3 | 2.38 | 5.56 | 1.96 | 4.35 | 1.91 | 4.3 | 1.61 | 3.11 | 1.81 | 3.36 | 4.25 | –
C[C@]12CCCC(=O)C1C[C@H](C(=O)O)CC2 (stereo partly drawn) | – | > 100 | – | – | – | > 100 | – | > 100 | – | > 100 | – | > 100 | – | > 100 | – | > 100 | > 100 | > 100
CCCCCCC1N=C(N)N=C(N)N1c1ccc(Cl)cc1 (stereo not drawn) | > 100 | > 100 | 12.5 | – | 3.53 | 17.4 | 5.55 | > 100 | 3.04 | 23.5 | 8.62 | 30 | 3.76 | 16.1 | 2.53 | 14.7 | 26.7 | –
